Columns and labels:
Type in all cases: biochemical
[1] = molecular target: T1, P450 1A1 (Homo sapiens, UniProt P04798)
T1 sequence (P04798 1-512): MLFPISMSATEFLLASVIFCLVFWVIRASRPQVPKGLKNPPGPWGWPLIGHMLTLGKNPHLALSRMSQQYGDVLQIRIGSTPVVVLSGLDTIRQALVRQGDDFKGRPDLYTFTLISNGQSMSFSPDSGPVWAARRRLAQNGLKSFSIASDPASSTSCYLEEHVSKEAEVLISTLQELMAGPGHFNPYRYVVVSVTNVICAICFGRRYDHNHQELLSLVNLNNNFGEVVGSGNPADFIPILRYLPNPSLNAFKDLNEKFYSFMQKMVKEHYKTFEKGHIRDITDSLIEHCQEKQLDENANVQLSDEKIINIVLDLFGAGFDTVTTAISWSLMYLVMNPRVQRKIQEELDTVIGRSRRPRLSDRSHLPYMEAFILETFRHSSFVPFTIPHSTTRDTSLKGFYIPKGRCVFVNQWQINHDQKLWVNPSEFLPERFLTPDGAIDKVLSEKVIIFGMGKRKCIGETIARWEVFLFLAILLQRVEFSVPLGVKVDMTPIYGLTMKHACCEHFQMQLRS

[2] = molecular target: T2, P450 1A2 (Homo sapiens, UniProt P05177)
T2 sequence (P05177 1-516): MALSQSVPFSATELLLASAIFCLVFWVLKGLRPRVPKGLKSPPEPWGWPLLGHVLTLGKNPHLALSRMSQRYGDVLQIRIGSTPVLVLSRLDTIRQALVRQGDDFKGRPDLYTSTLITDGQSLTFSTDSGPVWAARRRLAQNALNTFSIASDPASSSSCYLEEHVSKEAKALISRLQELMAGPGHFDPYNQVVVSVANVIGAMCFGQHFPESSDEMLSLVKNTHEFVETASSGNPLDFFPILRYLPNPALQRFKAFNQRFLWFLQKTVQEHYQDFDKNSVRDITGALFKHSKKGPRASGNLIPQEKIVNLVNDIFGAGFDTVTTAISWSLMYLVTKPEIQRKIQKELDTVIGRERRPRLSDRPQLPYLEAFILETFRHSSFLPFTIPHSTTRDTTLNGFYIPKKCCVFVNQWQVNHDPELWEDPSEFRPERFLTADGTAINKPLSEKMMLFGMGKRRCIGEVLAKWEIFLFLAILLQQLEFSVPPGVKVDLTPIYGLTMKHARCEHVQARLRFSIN

[3] = molecular target: T3, P450 1B1 (Homo sapiens, UniProt Q16678); conditions: from IC50 values
T3 sequence (Q16678 1-543): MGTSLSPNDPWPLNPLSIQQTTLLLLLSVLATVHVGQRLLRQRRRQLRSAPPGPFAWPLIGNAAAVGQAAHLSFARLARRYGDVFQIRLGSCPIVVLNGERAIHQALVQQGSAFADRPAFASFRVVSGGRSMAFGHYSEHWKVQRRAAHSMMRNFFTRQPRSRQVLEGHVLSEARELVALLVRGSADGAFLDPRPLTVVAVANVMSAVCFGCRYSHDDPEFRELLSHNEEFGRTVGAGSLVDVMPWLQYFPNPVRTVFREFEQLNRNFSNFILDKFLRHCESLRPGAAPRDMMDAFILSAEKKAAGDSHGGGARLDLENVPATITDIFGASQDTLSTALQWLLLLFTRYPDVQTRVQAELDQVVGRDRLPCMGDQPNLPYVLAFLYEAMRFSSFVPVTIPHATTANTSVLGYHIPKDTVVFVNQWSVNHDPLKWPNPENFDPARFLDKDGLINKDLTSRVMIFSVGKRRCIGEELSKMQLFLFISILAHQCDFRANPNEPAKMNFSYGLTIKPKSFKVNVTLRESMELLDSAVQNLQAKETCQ

[4] = Kitz-Wilson plot, mechanism-based inactivation

Compound | KI, P450 1A1 [1, 4] [nM] | mechanism of inhibition of P450 1A1 ([1]; in words) | KI, P450 1A2 [2, 4] [nM] | mechanism of inhibition of P450 1A2 ([2]; in words) | effect on P450 1A1 ([1]; 0.1 μM inhibitor, in words) | effect on P450 1A2 ([2]; 0.1 μM inhibitor, in words) | inhibition of P450 1A2 ([2]; in words (conclusion)) | selectivity for P450 1B1 over P450 1A1 [3] [times] | selectivity for P450 1B1 over P450 1A2 [3]
C#CCOc1cccc(-c2cc(=O)c3c(O)cccc3o2)c1 [5H3′FPE, 5-Hydroxy-2-(3-(propargyloxy)phenyl)-4H-chromen-4-one] | 130 | mechanism-based inhibitor | 71 | mechanism-based inhibitor |  |  |  |  | 
C#CCOc1ccc(-c2cc(=O)c3c(O)cccc3o2)cc1 [5H4′FPE, 5-Hydroxy-2-(4-(propargyloxy)phenyl)-4H-chromen-4-one] |  |  |  |  | without having any significant effect | without having any significant effect | no inhibition | 120 | more than 250 times

From publication PMC3685175 (Journal of medicinal chemistry, 2013)
